What was measured:
[1] = system: DHL4, a human B cell lymphoma; assay: colonogenic cell survival assay; type: cell-based; details: 120 h, read-out: Colonies formed after 5-days (% of control)
Procedure: (§1) Inhibition of colony formation in soft agar medium (colonogenic cell survival assay) is a more rigorous and direct measurement of cell kill or growth inhibition, and reflects the anti-cancer activity of the test compound. Briefly, tumor cells were cultured in petri dishes in methylcellulose, with or without a phosphonate test compound, and the number of colonies formed during a 5-day incubation period were counted.
(§2) The anti-cancer activity of the phosphonate of the following formula: [drawing 16] against human leukemia and lymphoma was also studied using the colonogenic cell survival assay. DHL4, a human B cell lymphoma; HeL, a human erythroid leukemia: JRT3T3, a human T-cell lymphoma; and KG 1α, a human mycloid leukemia, were evaluated for their sensitivity to the cytotoxic activity of the phosphonate of the above formula (compound VIII).

[2] = system: HeL, a human erythroid leukemia; assay: colonogenic cell survival assay; type: cell-based; details: 120 h, read-out: Colonies formed after 5-days (% of control)
Procedure: as §1, §2

[3] = system: JRT3T3, a human T-cell lymphoma; assay: colonogenic cell survival assay; type: cell-based; details: 120 h, read-out: Colonies formed after 5-days (% of control)
Procedure: as §1, §2

[4] = system: KG1α, a human myeloid leukemia; assay: colonogenic cell survival assay; type: cell-based; details: KG-1a, 120 h, read-out: Colonies formed after 5-days (% of control)
Procedure: as §1, §2

[5] = system: HT-29 (human colorectal cancer); assay: colonogenic cell survival assay; type: cell-based; details: 120 h, read-out: Colonies formed (% of control)
Procedure: as §1
(§3) The anti-cancer activity of the phosphonate compound of the formula shown above (compound VIII) was examined in human melanoma and colorectal tumor cell lines using the colonogenic cell survival assay (described above). RPMI-7951 (human melanoma) and HT-29 (human colorectal cancer) tumor cell lines were evaluated for their sensitivity to the cytotoxic activity of the above phosphonate (compound VIII).

[6] = system: RPMI-7951 (human melanoma); assay: colonogenic cell survival assay; type: cell-based; details: 120 h, read-out: Colonies formed (% of control)
Procedure: as §1, §3

[7] = system: human melanoma cell line (RPMI-7951); assay: RPMI-7951 melanoma growth and metastasis in nude mice, topical treatment; type: in vivo; details: topically twice a day, emulsion of 80 mg/mL; RPMI-7951 intradermal in nude mice
Procedure: Similar studies were also performed with a human melanoma cell line (RPMI-7951) grown in nude mice. Mice injected with RPMI-7951 cell line intradermally developed tumors. When the mice were treated topically, twice a day, with an emulsion of 80 mg/mL of the phosphonate compound of the formula shown above (compound VIII), the growth and metastasis of tumors were retarded by approximately 60%.

B-16/F10 melanoma cells = assay: B-16/F10 melanoma metastasis in C57BL/6 mice; type: in vivo; details: 10 mg/kg IM (5 days/week for 2 weeks)
Procedure: (§4) Highly metastatic B-16/F10 melanoma cells were injected into the tail veins of female C57BL/6 mice (1×10^5 cells per mouse). Treatment of one group of mice with the phosphonate compound of the above formula (compound VIII), dissolved into 0.5mL ethanol, 0.5 mL cremaphor and 9.0 mL phosphate buffered saline, began three days after the tumor cells were injected. lntramuscular injections of 0.2 mL of the phosphonate emulsion (10 mg/kg/day) were given for 5 days per week for 2 weeks. A second group of mice were treated with Adriamycin (10 mg/kg given intravenously on days 0, 4 and 8) as a known anti-cancer drug control group, while a third group of mice received the vehicle emulsion alone. The mice were examined every day for general health, behaviour and body weight. Counts of metastatic melanomic tumor colonies found in the lungs, general observations of metastasis to distant organs and examination of organs (liver, kidneys, lungs and spleen) were taken at autopsy 4 weeks after treatment.

[8] = body weight and general toxicity in the B-16/F10 melanoma study; type: in vivo, C57BL/6 mice; details: for Body weight (grams): 10 mg/kg IM (5 days/week for 2 weeks)
Procedure: as §4

[9] = system: HCT-116 (human rectal cancer); assay: cytotoxicity IC50 (3H-thymidine uptake, colonogenic cell survival and MTT assays); type: cell-based
Excerpt: (§5) A combination of ^3 H-Thymidine incorporation assay, colonogenic cell survival assay and MTT assay was used to determine cytotoxicity data of phosphonates in several mouse and human tumor cell lines.

[10] = system: HT29 (human colon cancer); assay: as above; type: cell-based; details: HT-29
Excerpt: as §5

[11] = system: L1210 (mouse B-cell lymphoma); assay: as above; type: cell-based
Excerpt: as §5

[12] = system: MCF-7 (human breast cancer); assay: as above; type: cell-based; details: MCF7
Excerpt: as §5

[13] = system: MeWo (human melanoma cancer); assay: as above; type: cell-based
Excerpt: as §5

[14] = system: P388 (mouse monocytic leukemia); assay: as above; type: cell-based
Excerpt: as §5

[15] = system: P388 DR (drug resistant P388); assay: as above; type: cell-based; details: Mus musculus
Excerpt: as §5

[16] = system: RPMI (advanced human melanoma); assay: as above; type: cell-based
Excerpt: as §5

[17] = system: WEHI-3B (mouse granulocytic leukemia); assay: as above; type: cell-based; details: WEHI3B
Excerpt: as §5

CCCCCCCCCCCCCCCCOCC(CCP(=O)([O-])OCC[N+](C)(C)C)OC (stereo not shown) [compound VIII] gave an activity at 1.25 µM ([1]; 1.25 μM) of 76 ± 7%, an activity at 2.5 µM ([1]; 2.5 μM) of 61 ± 5% and an activity at 5 µM ([1]; 5 μM) of 42 ± 6%. It also gave an activity at 10 µM ([1]; 10 μM) of 18 ± 4%, an activity at 20 µM ([1]; 20 μM) of 5 ± 1% and an activity at 40 µM ([1]; 40 μM) of 0%. For the same compound, the activity at 1.25 µM ([2]; 1.25 μM) was 91 ± 8%, the activity at 2.5 µM ([2]; 2.5 μM) was 72 ± 5% and the activity at 5 µM ([2]; 5 μM) was 58 ± 4%. For the same compound, the activity at 10 µM ([2]; 10 μM) was 26 ± 5%, the activity at 20 µM ([2]; 20 μM) was 12 ± 3% and the activity at 40 µM ([2]; 40 μM) was 1 ± 0.5%. The activity at 1.25 µM ([3]; 1.25 μM) was 87 ± 6%, the activity at 2.5 µM ([3]; 2.5 μM) was 65 ± 7% and the activity at 5 µM ([3]; 5 μM) was 34 ± 5%. It also gave an activity at 10 µM ([3]; 10 μM) of 20 ± 3%, an activity at 20 µM ([3]; 20 μM) of 8 ± 2% and an activity at 40 µM ([3]; 40 μM) of 3 ± 1%. For the same compound, the activity at 1.25 µM ([4]; 1.25 μM) was 78 ± 8%, the activity at 2.5 µM ([4]; 2.5 μM) was 56 ± 6% and the activity at 5 µM ([4]; 5 μM) was 41 ± 4%. It also gave an activity at 10 µM ([4]; 10 μM) of 15 ± 3%, an activity at 20 µM ([4]; 20 μM) of 7 ± 1% and an activity at 40 µM ([4]; 40 μM) of 4 ± 1%. The activity at 2.5 µM ([5]; 2.5 μM) was 74%, the activity at 5 µM ([5]; 5 μM) was 51% and the activity at 10 µM ([5]; 10 μM) was 22%. For the same compound, the activity at 20 µM ([5]; 20 μM) was 8%, the activity at 40 µM ([5]; 40 μM) was 0% and the activity at 2.5 µM ([6]; 2.5 μM) was 68%. For the same compound, the activity at 5 µM ([6]; 5 μM) was 43%, the activity at 10 µM ([6]; 10 μM) was 13% and the activity at 20 µM ([6]; 20 μM) was 3%. The activity at 40 µM ([6]; 40 μM) was 0%, the “retardation of growth and metastasis of tumors” value [7] was “approximately 60%” and the “melanomic metastasis to distant organs at autopsy (in words)” value (B-16/F10 melanoma cells) was “no traces of melanomic metastasis to distant organs were evident in five of six animals”. The “Melanomic tumor colonies found in the lungs at autopsy” value (“Melanomic tumor colonies found” for short) (B-16/F10 melanoma cells; Mouse 1) was 2, the “Melanomic tumor colonies found” value (B-16/F10 melanoma cells; Mouse 2) was 0 and the “Melanomic tumor colonies found” value (B-16/F10 melanoma cells; Mouse 3) was 1. The “Melanomic tumor colonies found” value (B-16/F10 melanoma cells; Mouse 4) was 0, the “Melanomic tumor colonies found” value (B-16/F10 melanoma cells; Mouse 5) was 0 and the “Melanomic tumor colonies found” value (B-16/F10 melanoma cells; Mouse 6) was 3. The “Body weight (grams)” value ([8]; Mouse 1, day 0) was 19 grams, the “Body weight (grams)” value ([8]; Mouse 1, day 12) was 20 grams and the “Body weight (grams)” value ([8]; Mouse 1, day 26) was 23 grams. The “Body weight (grams)” value ([8]; Mouse 2, day 0) was 19 grams, the “Body weight (grams)” value ([8]; Mouse 2, day 12) was 20 grams and the “Body weight (grams)” value ([8]; Mouse 2, day 26) was 22 grams. For the same compound, the “Body weight (grams)” value ([8]; Mouse 3, day 0) was 19 grams, the “Body weight (grams)” value ([8]; Mouse 3, day 12) was 21 grams and the “Body weight (grams)” value ([8]; Mouse 3, day 26) was 24 grams. The “Body weight (grams)” value ([8]; Mouse 4, day 0) was 20 grams, the “Body weight (grams)” value ([8]; Mouse 4, day 12) was 21 grams and the “Body weight (grams)” value ([8]; Mouse 4, day 26) was 25 grams. The “Body weight (grams)” value ([8]; Mouse 5, day 0) was 19 grams, the “Body weight (grams)” value ([8]; Mouse 5, day 12) was 21 grams and the “Body weight (grams)” value ([8]; Mouse 5, day 26) was 24 grams. For the same compound, the “Body weight (grams)” value ([8]; Mouse 6, day 0) was 20 grams, the “Body weight (grams)” value ([8]; Mouse 6, day 12) was 21 grams and the “Body weight (grams)” value ([8]; Mouse 6, day 26) was 24 grams. The “toxicity (weight, behaviour and appearance of the mice; in words)” value ([8]; intramuscularly, 10 mg/kg for 2 weeks) was “not toxic”, the IC50 [9] was 12 µM and the IC50 [10] was 9 µM. For the same compound, the IC50 [11] was 5 µM, the IC50 [12] was 35.3 µM and the IC50 [13] was 15.7 µM. It also gave an IC50 [14] of 4.5 µM, an IC50 [15] of 5 µM and an IC50 [16] of 9 µM. It also gave an IC50 [17] of 2.5 µM.

— patent publication US5506217A, “Phosphonates as anti-cancer agents” (The University of British Columbia, priority 1994, dated 1996)
